The text below walks through data of ChEMBL document CHEMBL1139147, “Evaluation of fluorescently labeled xylopyranosides as probes for proteoglycan biosynthesis” (Bioorg Med Chem Lett, 2007).

Activity calls are given as the source filed them. No cut-off for these calls is given here.

Series [1] is described as follows: Partition coefficient, log P assessed as retention time. The settings on record: octanol/water. It is filed as physicochemical.
For series [2], the system named is T-24. The series can be described thus: Suppression of proteoglycan production in T24 cells at 0.1 mM. The format is functional, cell-based. The settings on record: Homo sapiens.
Series [3] has as its system T-24. The series can be described thus: Suppression of glycosaminoglycan production in T24 cells at 0.1 mM. The settings on record: Homo sapiens. It is filed as functional, cell-based.

Regarding `Oc1cc2ccc(O[C@@H]3OC[C@@H](O)[C@H](O)[C@H]3O)cc2cc1COCc1c2ccccc2cc2ccccc12`, in series [1], the Activity worked out at 43.4 min.
In the case of `CN(C)c1cccc2c(S(=O)(=O)Oc3ccc4cc(O[C@@H]5OC[C@@H](O)[C@H](O)[C@H]5O)ccc4c3)cccc12`, the Activity in series [1] is 38.48 min. Besides, the outcome in the series with T-24 [2] and with T-24 [3] was Active.
`Oc1ccc2cc(O[C@@H]3OC[C@@H](O)[C@H](O)[C@H]3O)ccc2c1`: the Activity in series [1] is reported as 17.73 min.
